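Step 1: Grow cells in 96-well plates. Step 2: Expose to compound for 48 hours at 5 concentrations. Step 3: Interpolate endpoints linearly; if unreached, use highest concentration. Here, GI50 denotes the concentration required for 50% inhibition of growth. The concentration for full growth arrest is given as TGI.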
Assays:
Assay in all cases: NCI-60 cell line screen, 48 h
[1] = system: 786-0 renal
[2] = system: A498 renal
[3] = system: ACHN renal
[4] = system: BT-549 breast
[5] = system: CCRF-CEM leukemia
[6] = system: COLO 205 colon
[7] = system: DU-145 prostate
[8] = system: HCC-2998 colon
[9] = system: HCT-116 colon
[10] = system: HCT-15 colon
[11] = system: HL-60(TB) leukemia
[12] = system: HOP-62 NSCLC
[13] = system: HOP-92 NSCLC
[14] = system: HS 578T breast
[15] = system: HT29 colon
[16] = system: IGROV1 ovarian
[17] = system: K-562 leukemia
[18] = system: KM12 colon
[19] = system: LOX IMVI melanoma
[20] = system: M14 melanoma
[21] = system: MALME-3M melanoma
[22] = system: MCF7 breast
[23] = system: MDA-MB-231 breast
[24] = system: MOLT-4 leukemia
[25] = system: NCI-H226 lung
[26] = system: NCI-H23 lung
[27] = system: NCI-H460 lung
[28] = system: NCI-H522 lung
[29] = system: NCI/ADR-RES ovarian
[30] = system: OVCAR-3 ovarian
[31] = system: OVCAR-4 ovarian
[32] = system: OVCAR-5 ovarian
[33] = system: OVCAR-8 ovarian
[34] = system: RPMI-8226 leukemia
[35] = system: RXF 393 renal
[36] = system: SF-268 CNS
[37] = system: SF-295 CNS
[38] = system: SF-539 CNS
[39] = system: SK-MEL-2 melanoma
[40] = system: SK-MEL-28 melanoma
[41] = system: SK-MEL-5 melanoma
[42] = system: SK-OV-3 ovarian
[43] = system: SN12C renal
[44] = system: SNB-19 CNS
[45] = system: SNB-75 CNS
[46] = system: SR leukemia
[47] = system: SW-620 colon
[48] = system: T-47D breast
[49] = system: TK-10 renal
[50] = system: U251 CNS
[51] = system: UACC-257 melanoma
[52] = system: UACC-62 melanoma
[53] = system: UO-31 renal
[54] = system: A549 NSCLC
[55] = system: CAKI-1 renal
[56] = system: EKVX NSCLC
[57] = system: MDA-MB-435
[58] = system: PC-3 prostate

In the case of `COc1ccc(-c2nn(-c3cccc(Cl)c3)cc2C=C(C#N)C#N)cc1`, the GI50 [1] is reported as 2.25 µM, the TGI [1] is reported as 6.36 µM and the GI50 [2] is reported as 1.23 µM. The TGI [2] was 5.95 µM, the GI50 [3] was 2.64 µM and the TGI [3] was 8.82 µM. The GI50 [4] was 1.55 µM, the TGI [4] was 4.05 µM and the GI50 [5] was 1.43 µM. It also gave a TGI [5] of 4.76 µM, a GI50 [6] of 4.04 µM and a TGI [6] of 10.5 µM. It also gave a GI50 [7] of 3.55 µM, a TGI [7] of 90.1 µM and a GI50 [8] of 3.67 µM. For the same compound, the TGI [8] was 14 µM, the GI50 [9] was 1.73 µM and the TGI [9] was 4.44 µM. For the same compound, the GI50 [10] was 3.24 µM, the TGI [10] was > 100 µM and the GI50 [11] was 2.39 µM. For the same compound, the TGI [11] was 6.37 µM, the GI50 [12] was 2.59 µM and the TGI [12] was 6.04 µM. For the same compound, the GI50 [13] was 1.26 µM, the TGI [13] was 3.98 µM and the GI50 [14] was 1.57 µM. The TGI [14] was 7.04 µM, the GI50 [15] was 2.48 µM and the TGI [15] was 5.56 µM. It also gave a GI50 [16] of 2.85 µM, a TGI [16] of 6.29 µM and a GI50 [17] of 2.01 µM. The TGI [17] was 10.4 µM, the GI50 [18] was 2.83 µM and the TGI [18] was 8.86 µM. For the same compound, the GI50 [19] was 2.08 µM, the TGI [19] was 4.81 µM and the GI50 [20] was 2.39 µM. The TGI [20] was 6.92 µM, the GI50 [21] was 2.66 µM and the TGI [21] was 7.76 µM. It also gave a GI50 [22] of 2.35 µM, a TGI [22] of 7.72 µM and a GI50 [23] of 2.03 µM. For the same compound, the TGI [23] was 5.14 µM, the GI50 [24] was 2.12 µM and the TGI [24] was 6.12 µM. For the same compound, the GI50 [25] was 2.74 µM, the TGI [25] was 11.8 µM and the GI50 [26] was 2.68 µM. For the same compound, the TGI [26] was 7.66 µM, the GI50 [27] was 2.05 µM and the TGI [27] was 5.37 µM. For the same compound, the GI50 [28] was 2.21 µM, the TGI [28] was 5.76 µM and the GI50 [29] was 2.49 µM. The TGI [29] was 7.17 µM, the GI50 [30] was 2.2 µM and the TGI [30] was 4.9 µM. It also gave a GI50 [31] of 2.29 µM, a TGI [31] of 6.48 µM and a GI50 [32] of 3.68 µM. The TGI [32] was 48.4 µM, the GI50 [33] was 2.2 µM and the TGI [33] was 5.77 µM. For the same compound, the GI50 [34] was 2.3 µM, the TGI [34] was 7.1 µM and the GI50 [35] was 1.85 µM. It also gave a TGI [35] of 4.99 µM, a GI50 [36] of 2.5 µM and a TGI [36] of 9.14 µM. For the same compound, the GI50 [37] was 2.31 µM, the TGI [37] was 5.31 µM and the GI50 [38] was 2.3 µM. For the same compound, the TGI [38] was 5.44 µM, the GI50 [39] was 2.37 µM and the TGI [39] was 4.83 µM. For the same compound, the GI50 [40] was 2.35 µM, the TGI [40] was 5.84 µM and the GI50 [41] was 2.28 µM. It also gave a TGI [41] of 5.87 µM, a GI50 [42] of 2.66 µM and a TGI [42] of 5.72 µM. The GI50 [43] was 3.35 µM, the TGI [43] was > 100 µM and the GI50 [44] was 2.63 µM. The TGI [44] was > 100 µM, the GI50 [45] was 1.81 µM and the TGI [45] was 4.51 µM. It also gave a GI50 [46] of 1.54 µM, a TGI [46] of 3.66 µM and a GI50 [47] of 1.9 µM. For the same compound, the TGI [47] was 5.45 µM, the GI50 [48] was 3.34 µM and the TGI [48] was 21.8 µM. For the same compound, the GI50 [49] was 2.6 µM, the TGI [49] was 6.48 µM and the GI50 [50] was 1.59 µM. The TGI [50] was 3.33 µM, the GI50 [51] was 1.82 µM and the TGI [51] was 5.27 µM. The GI50 [52] was 2.39 µM, the TGI [52] was 10.6 µM and the GI50 [53] was 2.21 µM. The TGI [53] was 7.88 µM.
`CC1(C)N=C(N)N=C(N)N1c1cccc(C#N)c1` was tested, and the GI50 [1] was 0.578 µM, the TGI [1] was > 100 µM and the GI50 [2] was 20.9 µM. The TGI [2] was > 100 µM, the GI50 [54] was 0.932 µM and the TGI [54] was > 100 µM. For the same compound, the GI50 [3] was 4.09 µM, the TGI [3] was > 100 µM and the GI50 [4] was 27.9 µM. The TGI [4] was > 100 µM, the GI50 [55] was 2.45 µM and the TGI [55] was > 100 µM. The GI50 [5] was 3.05 µM, the TGI [5] was > 100 µM and the GI50 [6] was 31 µM. For the same compound, the TGI [6] was > 100 µM, the GI50 [7] was 6.53 µM and the TGI [7] was > 100 µM. For the same compound, the GI50 [56] was 1.09 µM, the TGI [56] was > 100 µM and the GI50 [8] was 7.11 µM. The TGI [8] was > 100 µM, the GI50 [9] was 0.364 µM and the TGI [9] was > 100 µM. The GI50 [10] was 5.65 µM, the TGI [10] was > 100 µM and the GI50 [11] was 3.46 µM. For the same compound, the TGI [11] was > 100 µM, the GI50 [12] was 16.6 µM and the TGI [12] was > 100 µM. The GI50 [14] was 71.6 µM, the TGI [14] was > 100 µM and the GI50 [15] was 0.933 µM. For the same compound, the TGI [15] was > 100 µM, the GI50 [16] was 6.7 µM and the TGI [16] was > 100 µM. For the same compound, the GI50 [17] was 0.293 µM, the TGI [17] was > 100 µM and the GI50 [18] was 7.37 µM. For the same compound, the TGI [18] was > 100 µM, the GI50 [19] was 0.605 µM and the TGI [19] was > 100 µM. The GI50 [20] was 0.696 µM, the TGI [20] was > 100 µM and the GI50 [21] was 16.7 µM. For the same compound, the TGI [21] was > 100 µM, the GI50 [22] was 3.85 µM and the TGI [22] was > 100 µM. For the same compound, the GI50 [23] was > 100 µM, the TGI [23] was > 100 µM and the GI50 [57] was 0.594 µM. The TGI [57] was > 100 µM, the GI50 [24] was 3.21 µM and the TGI [24] was > 100 µM. The GI50 [25] was 7.07 µM, the TGI [25] was > 100 µM and the GI50 [26] was 5.32 µM. The TGI [26] was > 100 µM, the GI50 [27] was 2.8 µM and the TGI [27] was > 100 µM. For the same compound, the GI50 [28] was 4.68 µM, the TGI [28] was > 100 µM and the GI50 [29] was 75.9 µM. The TGI [29] was > 100 µM, the GI50 [30] was 19 µM and the TGI [30] was > 100 µM. For the same compound, the GI50 [31] was > 100 µM, the TGI [31] was > 100 µM and the GI50 [32] was 2.74 µM. The TGI [32] was > 100 µM, the GI50 [33] was 0.599 µM and the TGI [33] was > 100 µM. For the same compound, the GI50 [58] was 2.66 µM, the TGI [58] was > 100 µM and the GI50 [34] was 62.9 µM. For the same compound, the TGI [34] was > 100 µM, the GI50 [35] was 4.33 µM and the TGI [35] was > 100 µM. The GI50 [36] was 0.692 µM, the TGI [36] was > 100 µM and the GI50 [37] was 2.05 µM. For the same compound, the TGI [37] was 24.1 µM, the GI50 [38] was 3.74 µM and the TGI [38] was > 100 µM. For the same compound, the GI50 [39] was 8.99 µM, the TGI [39] was > 100 µM and the GI50 [40] was 48.8 µM. For the same compound, the TGI [40] was > 100 µM, the GI50 [41] was 8.1 µM and the TGI [41] was > 100 µM. For the same compound, the GI50 [42] was 21.2 µM, the TGI [42] was > 100 µM and the GI50 [43] was 6.1 µM. For the same compound, the TGI [43] was > 100 µM, the GI50 [44] was 49.4 µM and the TGI [44] was > 100 µM. The GI50 [45] was 9.03 µM, the TGI [45] was > 100 µM and the GI50 [46] was 4.36 µM. For the same compound, the TGI [46] was > 100 µM, the GI50 [47] was 0.567 µM and the TGI [47] was > 100 µM. The GI50 [48] was > 100 µM, the TGI [48] was > 100 µM and the GI50 [49] was 18.2 µM. For the same compound, the TGI [49] was > 100 µM, the GI50 [50] was 0.752 µM and the TGI [50] was > 100 µM. The GI50 [51] was 11.7 µM, the TGI [51] was > 100 µM and the GI50 [52] was 3.84 µM. The TGI [52] was > 100 µM, the GI50 [53] was 5.9 µM and the TGI [53] was > 100 µM.

From PubChem BioAssay (NCI)
